From patent publication US11426397B2, “Piperidinyl- and piperazinyl-substituted heteroaromatic carboxamides as modulators of GPR6” (TAKEDA PHARMACEUTICAL COMPANY LIMITED, priority 2017, dated 2022)

Molecular target: T1, GPR6 receptor expressed in CHO-K1 cells (Homo sapiens, UniProt P46095)
T1 construct: expressed in transfected cells
Assay: In vitro inhibition of cAMP (EC50), cell-based HTRF cAMP assay
Conditions: inhibition of constitutive cAMP activity of GPR6 in CHO-K1 cells
Procedure, shortened: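 Cellular cAMP measured by Lance Ultra HTRF (Eu-cAMP tracer, ULight anti-cAMP), with EC50 fitted by four-parameter logistic. Test compounds sat on cells 45 min, 37 °C, in pH 7.4 Ringer's with 300 μM IBMX and 0.5% BSA; GPR6 in CHO-K1 induced beforehand by doxycycline, 2 μg/mL, 20 h.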

T1 sequence (P46095 whole entry): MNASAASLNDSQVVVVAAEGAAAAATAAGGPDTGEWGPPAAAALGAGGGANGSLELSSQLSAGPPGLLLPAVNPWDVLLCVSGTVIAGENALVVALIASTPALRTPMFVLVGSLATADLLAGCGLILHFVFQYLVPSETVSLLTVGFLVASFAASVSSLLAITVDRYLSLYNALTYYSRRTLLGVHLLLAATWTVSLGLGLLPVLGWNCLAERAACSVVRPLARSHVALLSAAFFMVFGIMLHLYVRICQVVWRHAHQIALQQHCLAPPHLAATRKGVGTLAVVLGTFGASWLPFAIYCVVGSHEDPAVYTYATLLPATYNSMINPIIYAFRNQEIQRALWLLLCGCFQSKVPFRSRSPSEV

Compound	pEC50, in vitro inhibition of cAMP
Cn1cc2ccc(NC(=O)c3ccccn3)c(N3CCC(Oc4ccc(F)cc4F)CC3)c2n1 [Example 149, N-(7-(4-(2,4-difluorophenoxy)piperidin-1-yl)-2-methyl-2H-indazol-6-yl)picolinamide]	5.8
O=C(Nc1ccc2nccnc2c1N1CCC(Oc2ccc(F)cc2F)CC1)c1ccccn1 [Example 150, N-(5-(4-(2,4-difluorophenoxy)piperidin-1-yl)quinoxalin-6-yl)picolinamide]	<5.7
COc1nn(C)cc1C(=O)Nc1cc(C#N)cnc1N1CCN(Cc2cc(C#N)ccc2F)CC1 [Example 151, N-(5-cyano-2-(4-(5-cyano-2-fluorobenzyl)piperazin-1-yl)pyridin-3-yl)-3-methoxy-1-methyl-1H-pyrazole-4-carboxamide]	6.3
COc1ccc(CN2CCN(c3ncc(C#N)cc3NC(=O)c3cn(C)nc3OC)CC2)c(F)c1 [Example 152, N-(5-cyano-2-(4-(2-fluoro-4-methoxybenzyl)piperazin-1-yl)pyridin-3-yl)-3-methoxy-1-methyl-1H-pyrazole-4-carboxamide]	7.1
COc1nn(C)cc1C(=O)Nc1cc(C#N)cnc1N1CCN(Cc2ccc(C#N)cc2)CC1 [Example 153, N-(5-cyano-2-(4-(4-cyanobenzyl)piperazin-1-yl)pyridin-3-yl)-3-methoxy-1-methyl-1H-pyrazole-4-carboxamide]	6.4
COc1nn(C)cc1C(=O)Nc1cc(C#N)cnc1N1CCN(Cc2ccc(F)c(C#N)c2)CC1 [Example 154, N-(5-cyano-2-(4-(3-cyano-4-fluorobenzyl)piperazin-1-yl)pyridin-3-yl)-3-methoxy-1-methyl-1H-pyrazole-4-carbonamide]	6.5
COc1cc(F)ccc1CN1CCN(c2ncc(C#N)cc2NC(=O)c2cn(C)nc2OC)CC1 [Example 155, N-(5-cyano-2-(4-(4-fluoro-2-methoxybenzyl)piperazin-1-yl)pyridin-3-yl)-3-methoxy-1-methyl-1H-pyrazole-4-carboxamide]	6.3
COc1cccc(CN2CCN(c3ncc(C#N)cc3NC(=O)c3cn(C)nc3OC)CC2)c1 [Example 156, N-(5-cyano-2-(4-(3-methoxybenzyl)piperazin-1-yl)pyridin-3-yl)-3-methoxy-1-methyl-1H-pyrazole-4-carboxamide]	6.4
COc1ccc(CN2CCN(c3ncc(C#N)cc3NC(=O)c3cn(C)nc3OC)CC2)cc1 [Example 157, N-(5-cyano-2-(4-(4-methoxybenzyl)piperazin-1-yl)pyridin-3-yl)-3-methoxy-1-methyl-1H-pyrazole-4-carboxamide]	6.7
COc1cc(CN2CCN(c3ncc(C#N)cc3NC(=O)c3cn(C)nc3OC)CC2)ccc1F [Example 158, N-(5-cyano-2-(4-(4-fluoro-3-methoxybenzyl)piperazin-1-yl)pyridin-3-yl)-3-methoxy-1-methyl-1H-pyrazole-4-carboxamide]	6.3
COc1cc(F)cc(CN2CCN(c3ncc(C#N)cc3NC(=O)c3cn(C)nc3OC)CC2)c1 [Example 159, N-(5-cyano-2-(4-(3-fluoro-5-methoxybenzyl)piperazin-1-yl)pyridin-3-yl)-3-methoxy-1-methyl-1H-pyrazole-4-carboxamide]	6.0
COc1nn(C)cc1C(=O)Nc1cc(C#N)cnc1N1CCN(Cc2cccc(F)c2OC)CC1 [Example 160, N-(5-cyano-2-(4-(3-fluoro-2-methoxybenzyl)piperazin-1-yl)pyridin-3-yl)-3-methoxy-1-methyl-1H-pyrazole-4-carboxamide]	6.5
COc1ccc(F)cc1CN1CCN(c2ncc(C#N)cc2NC(=O)c2cn(C)nc2OC)CC1 [Example 161, N-(5-cyano-2-(4-(5-fluoro-2-methoxybenzyl)piperazin-1-yl)pyridin-3-yl)-3-methoxy-1-methyl-1H-pyrazole-4-carboxamide]	6.5
COc1nn(C)cc1C(=O)Nc1cc(C#N)cnc1N1CCN(Cc2ccc(OC(F)F)cc2)CC1 [Example 162, N-(5-cyano-2-(4-(4-(difluoromethoxy)benzyl)piperazin-1-yl)pyridin-3-yl)-3-methoxy-1-methyl-1H-pyrazole-4-carboxamide]	6.6
COc1nn(C)cc1C(=O)Nc1cc(C#N)cnc1N1CCN(Cc2ccccc2OC(F)F)CC1 [Example 163, N-(5-cyano-2-(4-(2-(difluoromethoxy)benzyl)piperazin-1-yl)pyridin-3-yl)-3-methoxy-1-methyl-1H-pyrazole-4-carboxamide]	6.7
COc1nn(C)cc1C(=O)Nc1cc(C#N)cnc1N1CCN(Cc2cccc(OC(F)F)c2)CC1 [Example 164, N-(5-cyano-2-(4-(3-(difluoromethoxy)benzyl)piperazin-1-yl)pyridin-3-yl)-3-methoxy-1-methyl-1H-pyrazole-4-carboxamide]	6.5
COc1nn(C)cc1C(=O)Nc1cc(C#N)cnc1N1CCN(Cc2cccc(OC(F)(F)F)c2)CC1 [Example 165, N-(5-cyano-2-(4-(3-(trifluoromethoxy)benzyl)piperazin-1-yl)pyridin-3-yl)-3-methoxy-1-methyl-1H-pyrazole-4-carboxamide]	6.7
COc1nn(C)cc1C(=O)Nc1cc(C#N)cnc1N1CCN(Cc2ccc(OC(F)(F)F)cc2)CC1 [Example 166, N-(5-cyano-2-(4-(4-(trifluoromethoxy)benzyl)piperazin-1-yl)pyridin-3-yl)-3-methoxy-1-methyl-1H-pyrazole-4-carboxamide]	6.1
COc1nn(C)cc1C(=O)Nc1cc(C#N)cnc1N1CCN(Cc2ccccc2OC(F)(F)F)CC1 [Example 167, N-(5-cyano-2-(4-(2-(trifluoromethoxy)benzyl)piperazin-1-yl)pyridin-3-yl)-3-methoxy-1-methyl-1H-pyrazole-4-carboxamide]	6.5
COc1ccc(CN2CCN(c3ncc(C#N)cc3NC(=O)c3cn(C)nc3OC)CC2)cc1F [Example 168, N-(5-cyano-2-(4-(3-fluoro-4-methoxybenzyl)piperazin-1-yl)pyridin-3-yl)-3-methoxy-1-methyl-1H-pyrazole-4-carboxamide]	6.4
COc1nn(C)cc1C(=O)Nc1cc(C#N)cnc1N1CCN(Cc2cc(F)cc(F)c2)CC1 [Example 169, N-(5-cyano-2-(4-(3,5-difluorobenzyl)piperazin-1-yl)pyridin-3-yl)-3-methoxy-1-methyl-1H-pyrazole-4-carboxamide]	6.4
COc1cc(F)c(F)cc1CN1CCN(c2ncc(C#N)cc2NC(=O)c2cn(C)nc2OC)CC1 [Example 170, N-(5-cyano-2-(4-(4,5-difluoro-2-methoxybenzyl)piperazin-1-yl)pyridin-3-yl)-3-methoxy-1-methyl-1H-pyrazole-4-carboxamide]	6.5
COc1nn(C)cc1C(=O)Nc1cc(C#N)cnc1N1CCN(Cc2c(F)cc(F)c(OC)c2F)CC1 [Example 171, N-(5-cyano-2-(4-(2,4,6-trifluoro-3-methoxybenzyl)piperazin-1-yl)pyridin-3-yl)-3-methoxy-1-methyl-1H-pyrazole-4-carboxamide]	6.6
COc1nn(C)cc1C(=O)Nc1cc(C#N)cnc1N1CCN(Cc2ccc(Cl)cc2F)CC1 [Example 172, N-(2-(4-(4-chloro-2-fluorobenzyl)piperazin-1-yl)-5-cyanopyridin-3-yl)-3-methoxy-1-methyl-1H-pyrazole-4-carboxamide]	7.1
COc1nn(C)cc1C(=O)Nc1cc(C#N)cnc1N1CCN(Cc2c(F)cc(F)cc2F)CC1 [Example 173, N-(5-cyano-2-(4-(2,4,6-trifluorobenzyl)piperazin-1-yl)pyridin-3-yl)-3-methoxy-1-methyl-1H-pyrazole-4-carboxamide]	6.8
COc1nn(C)cc1C(=O)Nc1cc(C#N)cnc1N1CCN(Cc2c(F)cc(Cl)cc2F)CC1 [Example 174, N-(2-(4-(4-chloro-2,6-difluorobenzyl)piperazin-1-yl)-5-cyanopyridin-3-yl)-3-methoxy-1-methyl-1H-pyrazole-4-carboxamide]	7.1
COc1cccc(C(=O)Nc2cc(C#N)ccc2N2CCC(Oc3ccc(F)cc3F)CC2)n1 [Example 175, N-(5-cyano-2-(4-(2,4-difluorophenoxy)piperidin-1-yl)phenyl)-6-methoxypicolinamide]	7.0
Cc1cc(C)n(C)c(=O)c1C(=O)Nc1cc(C#N)ccc1N1CCC(Oc2ccc(F)cc2F)CC1 [Example 176, N-(5-cyano-2-(4-(2,4-difluorophenoxy)piperidin-1-yl)phenyl)-1,4,6-trimethyl-2-oxo-1,2-dihydropyridine-3-carboxamide]	6.5
N#Cc1ccc(N2CCC(Oc3ccc(F)cc3F)CC2)c(NC(=O)c2cnc3ccccn3c2=O)c1 [Example 178, N-(5-cyano-2-(4-(2,4-difluorophenoxy)piperidin-1-yl)phenyl)-4-oxo-4H-pyrido[1,2-a]pyrimidine-3-carboxamide]	6.8
CCCCn1cccc(C(=O)Nc2cc(C#N)ccc2N2CCC(Oc3ccc(F)cc3F)CC2)c1=O [Example 179, 1-butyl-N-(5-cyano-2-(4-(2,4-difluorophenoxy)piperidin-1-yl)phenyl)-2-oxo-1,2-dihydropyridine-3-carboxamide]	6.2
